Target: Casein kinase I isoform delta (Homo sapiens) (UniProt P48730)
Assay: inhibition of CK1 delta activity – biochemical, Z'-LYTE, FRET, direct format, dose response (AID 1671244)
Details: recombinant CK1 delta

Sequence of Casein kinase I isoform delta (Homo sapiens) (P48730 whole entry, looked up, canonical isoform): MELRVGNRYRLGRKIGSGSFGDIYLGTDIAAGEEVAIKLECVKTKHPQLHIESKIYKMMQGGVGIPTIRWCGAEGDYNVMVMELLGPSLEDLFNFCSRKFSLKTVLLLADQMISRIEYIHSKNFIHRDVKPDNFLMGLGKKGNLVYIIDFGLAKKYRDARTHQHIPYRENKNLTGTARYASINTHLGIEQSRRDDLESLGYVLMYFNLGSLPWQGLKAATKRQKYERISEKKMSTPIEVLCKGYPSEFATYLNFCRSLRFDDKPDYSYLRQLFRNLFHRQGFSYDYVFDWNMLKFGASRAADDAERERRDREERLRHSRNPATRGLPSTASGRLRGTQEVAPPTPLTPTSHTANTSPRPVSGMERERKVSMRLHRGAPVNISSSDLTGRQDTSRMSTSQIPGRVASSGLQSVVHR

IC50: 3.68 µM
SMILES: Brc1c(Br)c(Br)c2n[nH]nc2c1Br
